Legend:
[1] = tested on: pancreatic acinar cells; assay: Effect of growth factors on insulin-positive cell induction in main culture of pancreatic acinar cells; type: cell-based, mouse; conditions: day 7 of culture, EGF 20 ng/ml, HGF, FGF7 and FGF10 10 ng/ml, GLP-1 30 ng/ml; for proportion of insulin-positive cells: rank among growth factors (FIG. 8B)
Protocol: Eight-week old male mice (C57B1/6Cr Slc)(Japan SLC, Inc.: Hamamatsu, Japan) were anesthetized with 50 mg/kg of Nembtal (Dainippon Pharma Co., Ltd.: Osaka, Japan) and subjected to laparotomy. The choledoch duct was ligated near the position where it opens to the duodenum. Using a 27G winged needle (Terumo Corporation: Tokyo, Japan), 2-3 ml of Hank's buffer containing 0.05% collagenase P (Roche: Basel, Switzerland) and 10% fetal bovine serum was infused from the liver side. The pancreas, now swollen, was extracted and digested in 5 ml of Hank's buffer per pancreas for 18 minutes at 37° C. The digested pancreas then was made to pass through a 14G indwelling needle in both directions twice to disperse the pancreatic cells, which washed well with Hank's buffer containing 0.1% bovine serum albumin (Sigma: Saint Louis, Mo., USA). The pancreatic cells thus obtained were suspended in a mixed solution (solution A) consisting of 8.3% Ficoll 400 (Amersham Bioscience: Uppsala, Sweden) and 16.7% Conray 400 (Daiichi Pharmaceutical, Tokyo, Japan), and after a 87.5%-diluted solution of solution A and then a 50%-diluted solution of solution A were placed on it in the order, centrifuged (2,000 rpm, 10 min). Pancreatic acinar cells condensed in the spun down, lowest fraction were collected, and to them was added a sterilized 0.1 mg/ml solution of dithizone (1,5-diphenylthiocarbazone) (Nacalai Tesque, Inc.: Kyoto, Japan) and stained for 15 minutes at 37° C. in order to remove contaminating mature B-cells. Mature B-cells are stained red with dithizone, which is a chelating agent for zinc, for high concentration of insulin occurs in mature B-cells in the form of a hexamer via zinc (Latif et al., Transplantation, 45:827(1988)). By removing red-stained mature B-cells under a stereomicroscope, a fraction containing highly concentrated pancreatic acinar cells were obtained. […]

[2] = tested on: pancreatic acinar cells; assay: Correlation between EGF concentration and induction of colonies containing insulin-positive cells; type: cell-based, mouse; conditions: 0.5% fetal bovine serum (FIG. 9)
Protocol: The recovered cells were suspended in a nutrition medium (e.g., RPMI-1640) containing 0.5% fetal bovine serum (Sigma) and 20 ng/ml epidermal growth factor (EGF) (R&D Systems: Minneapolis, Minn., USA), and inoculated in cell culture dishes which were less adhesive for cells (Nalge Nunc: Rochester, N.Y., USA) and cultured in an incubator set at 37° C., 5% CO2. The pancreatic acinar cells, at early stages of culture, formed cell clusters having smooth boundaries consisting of congregated cells and, and kept themselves floating (FIG. 1A), and, at around day 3, adhere to the bottom of the dish and started to extend on it. After about 7 days, they formed relatively small cell aggregates (colonies) consisting of several dozen to several hundred cells (FIG. 1B). The cell density upon inoculation, which ranged from 1- to 10-fold dilution of that in pre-culture, had no influence on the form of the colonies observed.
In accordance with the method described in Example 1, except that the concentration of fetal bovine serum was fixed at 0.5% and EGF was used as the growth factor at a concentration of 0, 2, 20 or 200 ng/ml, main culture of pancreatic acinar cells were performed to assess the effect of EGF on induction of aimed cells (cells forming colonies containing insulin-positive cells as shown in FIG. 1B).

epidermal growth factor [EGF, epidermal growth factor (R&D Systems), growth factor added to the culture medium]
total cell count (growth of the cells) ([1]; rank among growth factors (FIG. 8A)): most effective | proportion of insulin-positive cells [1]: most effective | effect on induction of aimed cells (cells forming colonies containing insulin-positive cells) ([2]; EGF 20 ng/ml): remarkable effect | effect on induction of aimed cells (cells forming colonies containing insulin-positive cells) ([2]; EGF 200 ng/ml): remarkable effect

hepatocyte growth factor [HGF]
proportion of insulin-positive cells [1]: this was followed by FGF10 and HGF
